{"source": "patent US20210000730A1", "about": "“COMPOSITION COMPRISING OPTICAL CLEARING AGENT FOR IMPROVING OPTICAL CHARACTERISTIC OF SKIN” (LG HOUSEHOLD & HEALTH CARE LTD., priority 2018, published 2021)", "test_system": "corneum of subjects collected using corneum tape", "assay": "Reduction of light scattering of corneum tape, dark field image of polarization microscope with image analysis", "settings": "washed and dried after 3~4 hours", "excerpt": "The bright field image is a basic observation method of simply magnifying a sample without a unique optical unit and it is suitable for confirming the structure of the sample, but it is not appropriate for confirming the scattering light. The dark field image is an observation method of inducing the direct illumination light reaching the sample out, and collecting only the scattering light from the sample with objective lens, and the light from the upper light source of the microscope is scattered from the keratinocytes and appears white, and as the scattering decreases, it appears black.\nThe numerical value of the analyzed image is expressed in the range of 30-200, and the more the white image is, the higher the value is. The average value of the image numerical value of the unapplied site and the average value of the image numerical value of the applied site were obtained, and the reduction ratio of the image numerical value of the applied site compared to the unapplied site was calculated as a percentage.\nOn the other hand, to compare the effect of the present disclosure by relative values at the same concentration, the solution of urea, glycerol, sucrose, sodium lactate, polyethylene glycol 400 and hexanediol of the same concentration (10% by weight) was prepared and compared and evaluated (FIG. 3a). […]", "note": "“Also recorded” adds a separate entry of the source."}
{"smiles": "NC(N)=O", "note": "[urea]", "values": [{"measurement": "reduction of light scattering compared to the control group (water)", "setting": "10% of urea, 100 ul applied", "value": 17, "unit": "%"}, {"measurement": "light scattering of corneum after treatment, washing and drying (photograph, dark field image)", "setting": "urea applied to corneum tape, control water", "value": "the scattering was reduced and it appeared transparent; also recorded: corneum scattering was reduced and appeared black"}]}
